According to patent US20050209157A1, “Short bioactive peptides and methods for their use” (priority 2001, published 2005):
In brackets after ≈: the same amount, converted by molar mass. No end group written: not given here.

Legend:
[1] = test system: Escherichia coli ATCC 25922; assay: Antimicrobial assay I, modified protocol (tryptic soy broth), MBC; settings: minimum bactericidal concentration, Table 4
Description: (§1) The preparation of all media, stock solutions, and dilutions took place in a laminar flow hood to prevent contamination. Bacterial cells were freshly grown on antibiotic medium 2 agar slants (pH 7.0 at 25° C.). Bacteria were suspended and diluted in antibiotic medium 3 to about 10^4 cfu/ml and used as the inoculum. Sample solutions (100 μl/well) were added to plates according to the plate layout. Inoculum (100 μl/well) was added to achieve a final concentration of 5×10^3 cfu/ml. Negative controls received 100 μl saline and 100 μl growth medium. Positive controls received 100 μl saline and 100 μl inoculum. Bacterial plates were incubated at 37° C. for 24 hours.
(§2) However, the data for Table 4 were obtained with a modified protocol wherein the medium was tryptic soy broth, inocolum strength was approximately 10^4 CFU per ml, and values determined were minimum bactericidal concentrations (MBC) or minimum fungicidal concentrations (MFC).
(§3) MBC or MFC values are in μg/mL. E. coli is Escherichia coli ATCC accession number 25922; P. aerug is Pseudomonas aeruginosa ATCC accession number 27853, S. aur. is Stapholococcus aureus ATCC accession number 25923; Candida is Candida albicans ATCC accession number 10231.

[2] = test system: Pseudomonas aeruginosa ATCC 27853; assay: as above; settings: minimum bactericidal concentration, Table 4
[3] = test system: Stapholococcus aureus ATCC 25923; assay: as above; settings: minimum bactericidal concentration, Table 4
Description: as §1, §2, §3

[4] = test system: Candida albicans ATCC 10231; assay: Antimicrobial assay I, modified protocol (tryptic soy broth), MFC; settings: minimum fungicidal concentration, Table 4
Description: as §1, §2, §3

Compound | MBC E. coli A.25922 [1] | MBC P. aerug A.27853 [2] | MBC S. aur A.25923 [3] | MFC Candida A.10231 [4]
FAKGVGKVGKKAL-NH2 [compound 137] | INACT | INACT | INACT | INACT
FAFGKGIGKVGKKLL-NH2 [compound 133] | INACT | INACT | INACT | INACT
FAKIIAKIAKKI-NH2 [compound 143] | INACT | INACT | INACT | INACT
FAKLLAKLAKKSL-NH2 [compound 127] | INACT | INACT | INACT | INACT
CC(C)C[C@H](NC(=O)[C@H](CC(C)C)NC(=O)[C@H](CCCCN)NC(=O)[C@H](C)NC(=O)[C@H](CC(C)C)NC(=O)[C@H](C)NC(=O)[C@H](CCCCN)NC(=O)[C@H](CCCCN)NC(=O)[C@H](C)NC(=O)[C@H](CC(C)C)NC(=O)[C@H](CCCCN)NC(=O)[C@H](C)NC(=O)[C@@H](N)Cc1ccccc1)C(N)=O [compound 148] | 150 µg/mL (≈ 106 µM) | >250 µg/mL | >250 µg/mL | 100 µg/mL (≈ 70.7 µM)
KAKLF-NH2 [compound 130] | INACT | INACT | INACT | INACT
CC(C)C[C@H](NC(=O)[C@H](CCCCN)NC(=O)[C@H](CCCCN)NC(=O)[C@H](C)NC(=O)[C@H](CC(C)C)NC(=O)[C@H](CCCCN)NC(=O)[C@H](CCCCN)NC(=O)[C@H](CC(C)C)NC(=O)[C@H](CCCCN)NC(=O)[C@H](CCCCN)NC(=O)[C@H](C)NC(=O)[C@@H](N)Cc1ccccc1)C(N)=O [compound 79] | >50 µg/mL | >50 µg/mL | >50 µg/mL | >50 µg/mL
CC[C@H](C)[C@H](NC(=O)[C@H](C)NC(=O)[C@H](CCCNC(=N)N)NC(=O)[C@H](CC(C)C)NC(=O)CNC(=O)[C@@H](NC(=O)[C@H](C)NC(=O)[C@@H](N)Cc1ccccc1)C(C)C)C(=O)N[C@@H](CCCCN)C(=O)N[C@@H](CCCNC(=N)N)C(=O)N[C@@H](C)C(=O)N[C@@H](CC(C)C)C(=O)N[C@@H](CCCCN)C(=O)N[C@@H](CCCCN)C(=O)N[C@@H](CC(C)C)C(=O)N[C@@H](CCCNC(=N)N)C(=O)N[C@@H](CCCNC(=N)N)C(=O)NCC(=O)N[C@H](C(=O)N[C@@H](CCCNC(=N)N)C(=O)N[C@@H](CCCCN)C(=O)N[C@H](C(=O)N[C@@H](C)C(=O)N[C@@H](CCCCN)C(=O)N[C@@H](CC(=O)O)C(=O)N[C@@H](CC(C)C)C(N)=O)C(C)C)C(C)C [compound 157] | 75 µg/mL (≈ 25.3 µM) | >250 µg/mL | >250 µg/mL | >250 µg/mL
CC(C)C[C@H](NC(=O)[C@H](CC(C)C)NC(=O)[C@H](CCCCN)NC(=O)[C@H](CCCCN)NC(=O)[C@H](C)NC(=O)[C@H](CC(C)C)NC(=O)[C@H](CCCCN)NC(=O)[C@H](CCCCN)NC(=O)[C@H](C)NC(=O)[C@@H](N)Cc1ccccc1)C(N)=O [compound 59] | >50 µg/mL | >50 µg/mL | >50 µg/mL | >50 µg/mL
CC(C)C[C@H](NC(=O)[C@H](C)NC(=O)[C@@H](N)Cc1ccccc1)C(=O)N[C@@H](C)C(=O)N[C@@H](CC(C)C)C(=O)N[C@@H](CCCCN)C(=O)N[C@@H](C)C(=O)N[C@@H](CC(C)C)C(=O)N[C@@H](CCCCN)C(=O)N[C@@H](CCCCN)C(N)=O [compound 169] | 200 µg/mL (≈ 182 µM) | >250 µg/mL | >250 µg/mL | 75 µg/mL (≈ 68.1 µM)
CC(C)C[C@H](NC(=O)[C@H](C)NC(=O)[C@H](CC(C)C)NC(=O)[C@H](C)NC(=O)[C@H](CC(C)C)NC(=O)[C@H](CCCCN)NC(=O)[C@H](C)NC(=O)[C@H](CC(C)C)NC(=O)[C@H](CCCCN)NC(=O)[C@H](CCCCN)NC(=O)[C@H](CC(C)C)NC(=O)[C@H](CCCCN)NC(=O)[C@H](CCCCN)NC(=O)[C@H](C)NC(=O)[C@H](CC(C)C)NC(=O)[C@H](CCCCN)NC(=O)[C@H](CCCCN)NC(=O)[C@H](C)NC(=O)[C@@H](N)Cc1ccccc1)C(=O)O [27C] | 10 µg/mL (≈ 4.77 µM) | 4 µg/mL (≈ 1.91 µM) | >40 µg/mL | >40 µg/mL
FAKLLAKFLKKAL-NH2 [compound 113] | INACT | INACT | INACT | 40 µg/mL
CC(C)C[C@H](NC(=O)[C@H](CCCCN)NC(=O)[C@H](C)NC(=O)[C@H](CCCCN)NC(=O)[C@H](C)NC(=O)[C@H](CC(C)C)NC(=O)[C@H](CCCCN)NC(=O)[C@H](C)NC(=O)[C@H](CC(C)C)NC(=O)[C@H](CC(C)C)NC(=O)[C@H](CCCCN)NC(=O)[C@H](C)NC(=O)[C@@H](N)Cc1ccccc1)C(N)=O [compound 65] | >55 µg/mL | >50 µg/mL | >55 µg/mL | >50 µg/mL
FAKLA-NH2 [compound 128] | INACT | INACT | INACT | INACT
CC(C)C[C@H](NC(=O)[C@H](C)NC(=O)[C@H](CCCCN)NC(=O)[C@H](C)NC(=O)[C@H](CC(C)C)NC(=O)[C@H](CCCCN)NC(=O)[C@H](CCCCN)NC(=O)[C@H](C)NC(=O)[C@H](CC(C)C)NC(=O)[C@H](CCCCN)NC(=O)[C@H](C)NC(=O)[C@H](CC(C)C)NC(=O)[C@H](CCCCN)NC(=O)[C@H](CCCCN)NC(=O)[C@H](C)NC(=O)[C@@H](N)Cc1ccccc1)C(N)=O [compound 109] |  |  | 80 µg/mL (≈ 45.9 µM) | >50 µg/mL
CC[C@H](C)[C@H](NC(=O)[C@H](CC(N)=O)NC(=O)[C@H](CCCNC(=N)N)NC(=O)CNC(=O)[C@H](CCSC)NC(=O)[C@H](CCCCN)NC(=O)[C@H](CCC(=O)O)NC(=O)[C@@H](NC(=O)[C@H](CCCCN)NC(=O)[C@H](CC(C)C)NC(=O)[C@H](Cc1ccccc1)NC(=O)[C@@H](NC(=O)[C@H](CCCCN)NC(=O)[C@H](CCC(=O)O)NC(=O)[C@H](CCCCN)NC(=O)[C@@H]1CCCN1C(=O)[C@@H](N)CCSC)C(C)C)[C@@H](C)CC)C(=O)N[C@@H](CCCNC(=N)N)C(=O)N[C@@H](CC(N)=O)C(N)=O [compound 107] |  | >50 µg/mL | >50 µg/mL | >50 µg/mL
CC(C)C[C@H](NC(=O)[C@H](CCCCN)NC(=O)[C@H](CCCCN)NC(=O)[C@H](C)NC(=O)[C@H](CC(C)C)NC(=O)[C@H](CCCCN)NC(=O)[C@H](C)NC(=O)[C@H](CC(C)C)NC(=O)[C@H](CCCCN)NC(=O)[C@H](CCCCN)NC(=O)[C@H](C)NC(=O)[C@@H](N)Cc1ccccc1)C(N)=O [compound 106] | 50 µg/mL (≈ 36.8 µM) | >50 µg/mL |  | >50 µg/mL
CC[C@H](C)[C@H](NC(=O)CNC(=O)[C@H](CC(C)C)NC(=O)[C@H](CCCCN)NC(=O)[C@H](C)NC(=O)[C@H](CC(C)C)NC(=O)[C@H](C)NC(=O)[C@@H](NC(=O)[C@H](CCCCN)NC(=O)[C@H](C)NC(=O)[C@@H](NC(=O)[C@@H](N)CCCCN)[C@@H](C)CC)C(C)C)C(=O)NCC(=O)N[C@@H](C)C(=O)N[C@H](C(=O)N[C@@H](CC(C)C)C(=O)N[C@@H](CCCCN)C(=O)N[C@H](C(=O)N[C@@H](CC(C)C)C(=O)N[C@H](C(=O)N[C@H](C(=O)NCC(=O)N[C@@H](CC(C)C)C(N)=O)[C@@H](C)O)[C@@H](C)O)C(C)C)C(C)C [compound 105] | 25 µg/mL (≈ 11 µM) | >50 µg/mL |  | >50 µg/mL
CC(C)C[C@H](NC(=O)[C@H](C)NC(=O)[C@H](CC(C)C)NC(=O)[C@H](C)NC(=O)[C@H](CCCCN)NC(=O)[C@H](CCCCN)NC(=O)[C@H](C)NC(=O)[C@H](CC(C)C)NC(=O)[C@H](CCCCN)NC(=O)[C@H](C)NC(=O)[C@H](CC(C)C)NC(=O)[C@H](CCCCN)NC(=O)[C@H](CCCCN)NC(=O)[C@H](C)NC(=O)[C@@H](N)Cc1ccccc1)C(N)=O [compound 39] | >40 µg/mL | >40 µg/mL | >40 µg/mL | 
CC(C)C[C@H](NC(=O)[C@H](C)NC(=O)[C@H](CCCCN)NC(=O)[C@H](CCCCN)NC(=O)[C@H](C)NC(=O)[C@H](CCCCN)NC(=O)[C@H](CCCCN)NC(=O)[C@H](CC(C)C)NC(=O)[C@H](C)NC(=O)[C@H](CCCCN)NC(=O)[C@H](CCCCN)NC(=O)[C@H](C)NC(=O)[C@H](CC(C)C)NC(=O)[C@H](C)NC(=O)[C@@H](N)Cc1ccccc1)C(N)=O [compound 40] | 30 µg/mL (≈ 18.4 µM) | 40 µg/mL (≈ 24.6 µM) | >40 µg/mL | 
